# Test results taken from patent publication US20040253262A1, “Biological compositions and methods for treatment of lymphoma” (priority 2003, published 2004).
# How the values were obtained:
# spontaneous lymphoma = test: Inbred PBA mouse model of lymphoma, survival after treatment; assay type: in vivo; settings: 36 at start
# Experimental: A model based on inbred PBA mice which manifest a high incidence of tumor was used (Bailey et al., 1970, J Natl. Cancer Inst. 45(1):59-73). Mice six to eight weeks old were treated by the method as described in Shiyan Dongwu Yu Zhongliu Yanjiu (Experimental Animal & Tumor Research), April 2000, by Chinese Medical Technology Publisher.
# In the first series, the mice in group AY received 0.3 ml of the oral composition of the invention per day. The mice in group NY received 0.3 ml per day of a composition comprising at a similar concentration the same strain of yeast which had not been activated and conditioned. The mice in group CTX received subcutaneous injection of cyclophosphamide at a dose of 30 mg per kg body weight per day. […] The experiment was carried out over a 30-day treatment period.
# In the second series, the mice in group 2AY received 0.5 ml of the oral composition of the invention per day. The mice in group 2NY received 0.5 ml per day of a composition comprising the same strain of yeast which had not been activated and conditioned at a similar concentration. The mice in group 2CTX received subcutaneous injection of cyclophosphamide at a dose of 45 mg per kg body weight per day. […] The experiment was carried out over a 60-day treatment period.
# After the 30-day or 60-day treatment, the mice were fed a normal diet and allowed to live under the same environment. The health and survival of the mice were observed and compared over 180 days.
# Each group consisted of 36 mice at the beginning of the experiment (3 repeats). The total number of surviving mice in each group were counted at the end of every month up to 6 months after treatment stopped.
# Burkitt's lymphoma cells = test: Athymic nude mouse model with transplanted Burkitt's lymphoma cells, survival after treatment; assay type: in vivo; settings: 36 at start
# Experimental: A model based on transplantation of Burkitt's lymphoma cell in athymic nude mice was used (Gurtsevitch et al., 1988, Int J Cancer 15;41(1):87-95). The model was set up as described in Shiyan Dongwu Yu Zhongliu Yanjiu (Experimental Animal & Tumor Research), April 2000, by Chinese Medical Technology Publisher. Essentially, seven week old mice were injected intravenously each with 1×10^6 Burkitt's lymphoma cells.
# Twenty-one days after the injection of lymphoma cells, the mice were divided into two series of five groups: one series received treatment for 30 days, the other series received treatment for 60 days. […] The mice in group A received saline orally. The mice in group B received subcutaneous injection of cyclophosphamide at a dose of 30 mg per kg body weight per day. Group C received subcutaneous injection of cyclophosphamide at a dose of 45 mg per kg body weight per day. The mice in group D received 0.3 ml of the oral composition per day. Group E received 0.5 ml of the oral composition per day.
# After the 30-day or 60-day treatment, the mice were fed a normal diet and allowed to live under the same environment. The health and survival of the nude mice were observed and compared over 360 days.
# Each group consisted of 36 mice at the beginning of the experiment (3 repeats). The total number of surviving mice in each group were counted at the end of every month up to 12 months after treatment stopped.
structure (smiles),measurement,setting,value
O=P1(N(CCCl)CCCl)NCCCO1 (stereo not drawn) [cyclophosphamide],total number of surviving mice,"spontaneous lymphoma; 30 mg/kg per day per table head (45 mg/kg elsewhere in the source) s.c., 60-day treatment (group 2CTX), day 0 after treatment period",36
same,total number of surviving mice,"spontaneous lymphoma; 30 mg/kg per day per table head (45 mg/kg elsewhere in the source) s.c., 60-day treatment (group 2CTX), day 30 after treatment period",36
same,total number of surviving mice,"spontaneous lymphoma; 30 mg/kg per day per table head (45 mg/kg elsewhere in the source) s.c., 60-day treatment (group 2CTX), day 60 after treatment period",29
same,total number of surviving mice,"spontaneous lymphoma; 30 mg/kg per day per table head (45 mg/kg elsewhere in the source) s.c., 60-day treatment (group 2CTX), day 90 after treatment period",21
same,total number of surviving mice,"spontaneous lymphoma; 30 mg/kg per day per table head (45 mg/kg elsewhere in the source) s.c., 60-day treatment (group 2CTX), day 120 after treatment period",14
same,total number of surviving mice,"spontaneous lymphoma; 30 mg/kg per day per table head (45 mg/kg elsewhere in the source) s.c., 60-day treatment (group 2CTX), day 150 after treatment period",14
same,total number of surviving mice,"spontaneous lymphoma; 30 mg/kg per day per table head (45 mg/kg elsewhere in the source) s.c., 60-day treatment (group 2CTX), day 180 after treatment period",8
same,total number of surviving mice,"spontaneous lymphoma; 30 mg/kg per day s.c., 30-day treatment, day 0 after treatment period",36
same,total number of surviving mice,"spontaneous lymphoma; 30 mg/kg per day s.c., 30-day treatment, day 30 after treatment period",33
same,total number of surviving mice,"spontaneous lymphoma; 30 mg/kg per day s.c., 30-day treatment, day 60 after treatment period",27
same,total number of surviving mice,"spontaneous lymphoma; 30 mg/kg per day s.c., 30-day treatment, day 90 after treatment period",19
same,total number of surviving mice,"spontaneous lymphoma; 30 mg/kg per day s.c., 30-day treatment, day 120 after treatment period",17
same,total number of surviving mice,"spontaneous lymphoma; 30 mg/kg per day s.c., 30-day treatment, day 150 after treatment period",0
same,total number of surviving mice,"spontaneous lymphoma; 30 mg/kg per day s.c., 30-day treatment, day 180 after treatment period",0
same,total number of surviving mice,"Burkitt's lymphoma cells; 30 mg/kg per day s.c. (group B), 30-day treatment, day 0 after treatment period",36
same,total number of surviving mice,"Burkitt's lymphoma cells; 30 mg/kg per day s.c. (group B), 30-day treatment, day 30 after treatment period",33
same,total number of surviving mice,"Burkitt's lymphoma cells; 30 mg/kg per day s.c. (group B), 30-day treatment, day 60 after treatment period",24
same,total number of surviving mice,"Burkitt's lymphoma cells; 30 mg/kg per day s.c. (group B), 30-day treatment, day 90 after treatment period",14
same,total number of surviving mice,"Burkitt's lymphoma cells; 30 mg/kg per day s.c. (group B), 30-day treatment, day 120 after treatment period",5
same,total number of surviving mice,"Burkitt's lymphoma cells; 30 mg/kg per day s.c. (group B), 30-day treatment, day 150 after treatment period",3
same,total number of surviving mice,"Burkitt's lymphoma cells; 30 mg/kg per day s.c. (group B), 30-day treatment, day 180 after treatment period",1
same,total number of surviving mice,"Burkitt's lymphoma cells; 30 mg/kg per day s.c. (group B), 30-day treatment, day 210 after treatment period",0
same,total number of surviving mice,"Burkitt's lymphoma cells; 30 mg/kg per day s.c. (group B), 30-day treatment, day 240 after treatment period",0
same,total number of surviving mice,"Burkitt's lymphoma cells; 30 mg/kg per day s.c. (group B), 30-day treatment, day 270 after treatment period",0
same,total number of surviving mice,"Burkitt's lymphoma cells; 30 mg/kg per day s.c. (group B), 30-day treatment, day 300 after treatment period",0
same,total number of surviving mice,"Burkitt's lymphoma cells; 30 mg/kg per day s.c. (group B), 30-day treatment, day 330 after treatment period",0
same,total number of surviving mice,"Burkitt's lymphoma cells; 30 mg/kg per day s.c. (group B), 30-day treatment, day 360 after treatment period",0
same,total number of surviving mice,"Burkitt's lymphoma cells; 30 mg/kg per day s.c. (group B), 60-day treatment, day 0 after treatment period",35
same,total number of surviving mice,"Burkitt's lymphoma cells; 30 mg/kg per day s.c. (group B), 60-day treatment, day 30 after treatment period",35
same,total number of surviving mice,"Burkitt's lymphoma cells; 30 mg/kg per day s.c. (group B), 60-day treatment, day 60 after treatment period",33
same,total number of surviving mice,"Burkitt's lymphoma cells; 30 mg/kg per day s.c. (group B), 60-day treatment, day 90 after treatment period",24
same,total number of surviving mice,"Burkitt's lymphoma cells; 30 mg/kg per day s.c. (group B), 60-day treatment, day 120 after treatment period",19
same,total number of surviving mice,"Burkitt's lymphoma cells; 30 mg/kg per day s.c. (group B), 60-day treatment, day 150 after treatment period",9
same,total number of surviving mice,"Burkitt's lymphoma cells; 30 mg/kg per day s.c. (group B), 60-day treatment, day 180 after treatment period",5
same,total number of surviving mice,"Burkitt's lymphoma cells; 30 mg/kg per day s.c. (group B), 60-day treatment, day 210 after treatment period",2
same,total number of surviving mice,"Burkitt's lymphoma cells; 30 mg/kg per day s.c. (group B), 60-day treatment, day 240 after treatment period",0
same,total number of surviving mice,"Burkitt's lymphoma cells; 30 mg/kg per day s.c. (group B), 60-day treatment, day 270 after treatment period",0
same,total number of surviving mice,"Burkitt's lymphoma cells; 30 mg/kg per day s.c. (group B), 60-day treatment, day 300 after treatment period",0
same,total number of surviving mice,"Burkitt's lymphoma cells; 30 mg/kg per day s.c. (group B), 60-day treatment, day 330 after treatment period",0
same,total number of surviving mice,"Burkitt's lymphoma cells; 30 mg/kg per day s.c. (group B), 60-day treatment, day 360 after treatment period",0
same,total number of surviving mice,"Burkitt's lymphoma cells; 45 mg/kg per day s.c. (group C), 30-day treatment, day 0 after treatment period",35
same,total number of surviving mice,"Burkitt's lymphoma cells; 45 mg/kg per day s.c. (group C), 30-day treatment, day 30 after treatment period",35
same,total number of surviving mice,"Burkitt's lymphoma cells; 45 mg/kg per day s.c. (group C), 30-day treatment, day 60 after treatment period",27
same,total number of surviving mice,"Burkitt's lymphoma cells; 45 mg/kg per day s.c. (group C), 30-day treatment, day 90 after treatment period",21
same,total number of surviving mice,"Burkitt's lymphoma cells; 45 mg/kg per day s.c. (group C), 30-day treatment, day 120 after treatment period",17
same,total number of surviving mice,"Burkitt's lymphoma cells; 45 mg/kg per day s.c. (group C), 30-day treatment, day 150 after treatment period",11
same,total number of surviving mice,"Burkitt's lymphoma cells; 45 mg/kg per day s.c. (group C), 30-day treatment, day 180 after treatment period",4
same,total number of surviving mice,"Burkitt's lymphoma cells; 45 mg/kg per day s.c. (group C), 30-day treatment, day 210 after treatment period",2
same,total number of surviving mice,"Burkitt's lymphoma cells; 45 mg/kg per day s.c. (group C), 30-day treatment, day 240 after treatment period",1
same,total number of surviving mice,"Burkitt's lymphoma cells; 45 mg/kg per day s.c. (group C), 30-day treatment, day 270 after treatment period",0
same,total number of surviving mice,"Burkitt's lymphoma cells; 45 mg/kg per day s.c. (group C), 30-day treatment, day 300 after treatment period",0
same,total number of surviving mice,"Burkitt's lymphoma cells; 45 mg/kg per day s.c. (group C), 30-day treatment, day 330 after treatment period",0
same,total number of surviving mice,"Burkitt's lymphoma cells; 45 mg/kg per day s.c. (group C), 30-day treatment, day 360 after treatment period",0
same,total number of surviving mice,"Burkitt's lymphoma cells; 45 mg/kg per day s.c. (group C), 60-day treatment, day 0 after treatment period",34
same,total number of surviving mice,"Burkitt's lymphoma cells; 45 mg/kg per day s.c. (group C), 60-day treatment, day 30 after treatment period",34
same,total number of surviving mice,"Burkitt's lymphoma cells; 45 mg/kg per day s.c. (group C), 60-day treatment, day 60 after treatment period",34
same,total number of surviving mice,"Burkitt's lymphoma cells; 45 mg/kg per day s.c. (group C), 60-day treatment, day 90 after treatment period",27
same,total number of surviving mice,"Burkitt's lymphoma cells; 45 mg/kg per day s.c. (group C), 60-day treatment, day 120 after treatment period",19
same,total number of surviving mice,"Burkitt's lymphoma cells; 45 mg/kg per day s.c. (group C), 60-day treatment, day 150 after treatment period",12
same,total number of surviving mice,"Burkitt's lymphoma cells; 45 mg/kg per day s.c. (group C), 60-day treatment, day 180 after treatment period",7
same,total number of surviving mice,"Burkitt's lymphoma cells; 45 mg/kg per day s.c. (group C), 60-day treatment, day 210 after treatment period",3
same,total number of surviving mice,"Burkitt's lymphoma cells; 45 mg/kg per day s.c. (group C), 60-day treatment, day 240 after treatment period",0
same,total number of surviving mice,"Burkitt's lymphoma cells; 45 mg/kg per day s.c. (group C), 60-day treatment, day 270 after treatment period",0
same,total number of surviving mice,"Burkitt's lymphoma cells; 45 mg/kg per day s.c. (group C), 60-day treatment, day 300 after treatment period",0
same,total number of surviving mice,"Burkitt's lymphoma cells; 45 mg/kg per day s.c. (group C), 60-day treatment, day 330 after treatment period",0
same,total number of surviving mice,"Burkitt's lymphoma cells; 45 mg/kg per day s.c. (group C), 60-day treatment, day 360 after treatment period",0
